We go through 2 molecules from patent publication US6828338B2, “Substituted polycyclic aryl and heteroaryl pyridines useful for selective inhibition of the coagulation cascade” (Pharmacia Corporation, priority 2000, dated 2004).

This assay concerns the target T1, Human factor Xa (Homo sapiens, UniProt P00742).
T1 construct: leads from XII to XIIa to XIa to IXa and to the conversion of X to Xa; purchased Enzyme Research Laboratories, South Bend Ind
The assay is described as follows: Xa Assay. The assay is classed as biochemical. The protocol:
Human factor Xa (0.3 nM) and 0.15 mM N-a-Benzyloxycarbonyl-D-arginyl-L-glycyl-L-arginine-p-nitroaniline-dihydrochloride (S-2765) are added to a 96-well assay plate containing either inhibitor or buffer (50 mM Tris-HCl, pH 8.0, 100 mM NaCl, 0.1% BSA). The reaction, in a final volume of 100 ul is measured immediately at 405 nm to determine background absorbance. The plate is incubated at room temperature for 60 min, at which time the rate of hydrolysis of the substrate is measured by monitoring the reaction at 405 nm for the release of p-nitroaniline. Percent inhibition of Xa activity is calculated from OD405 nm value from the experimental and control sample.
Recombinant soluble TF, consisting of amino acids 1-219 of the mature protein sequence was expressed in E. coli and purified using a Mono Q Sepharose FPLC. Recombinant human VIIa was purchased from American Diagnostica, Greenwich Conn. and chromogenic substrate N-Methylsulfonyl-D-phe-gly-arg-p-nitroaniline was prepared by American Peptide Company, Inc., Sunnyvale, Calif. Factor Xa was obtained from Enzyme Research Laboratories, South Bend Ind., thrombin from Calbiochem, La Jolla, Calif., and trypsin and L-BAPNA from Sigma, St. Louis Mo. The chromogenic substrates S-2765 and S-2238 were purchased from Chromogenix, Sweden.

Bounds are passed on as bounds.

T1 sequence (P00742 235-488 limits assumed): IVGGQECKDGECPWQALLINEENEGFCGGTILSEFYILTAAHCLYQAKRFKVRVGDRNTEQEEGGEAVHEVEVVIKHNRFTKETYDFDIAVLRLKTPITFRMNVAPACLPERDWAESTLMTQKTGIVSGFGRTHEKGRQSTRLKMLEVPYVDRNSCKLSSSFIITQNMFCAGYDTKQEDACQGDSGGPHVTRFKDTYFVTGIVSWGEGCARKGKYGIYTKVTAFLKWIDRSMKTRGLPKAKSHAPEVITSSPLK
T1 sequence (P00742 41-179 limits assumed): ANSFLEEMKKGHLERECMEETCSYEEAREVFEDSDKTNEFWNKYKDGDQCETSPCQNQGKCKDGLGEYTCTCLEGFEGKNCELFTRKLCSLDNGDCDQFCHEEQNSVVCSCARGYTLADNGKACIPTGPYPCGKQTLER

Consider `CC(C)Nc1ccc(-c2cc(N)cc(N)c2)c(CC(=O)NCc2ccc(C(=N)N)cc2)[n+]1[O-]` [Example 7], for which the IC50 was greater than 100 µM.

Turning to `CC(C)Nc1ccc(/C=C/c2ccccc2)c(CC(=O)NCc2ccc(C(=N)N)cc2)[n+]1[O-]` [Example 12], the IC50 was greater than 100 µM.
